Results on one compound are retold here after patent US20230100173A1, “A TOPICAL COMPOSITION COMPRISING AN EXTRACT OF COMBINED HERBS […] ARILLUS FOR TLSP INHIBITION AND THE TREATMENT OR A[…] SKIN INFLAMMATORY DISEASE AND THE USE THEREOF” (ME[…]., LTD, priority 2020, published 2023).

Experiment [1] deals with TSLP. Put plainly: Inhibition of TNF alpha-induced TSLP expression in HaCaT cells (RT-PCR). In kind it is cell-based, human. Conditions: TNFα 50 ng/ml, extract 1 μg/ml, Dex 200 nM, mean. The protocol:
(§1) In order to determine the anti-inflammatory activity of inventive extract, following inhibition test of cytokine expression using HaCaT cell was performed according to the procedure disclosed in the literature (Jeong et al., 2019, J. Invest. Dermatol., May; 139 (5): pp 1098-1109).
(§2) HaCaT cell (human epithelial keratinocyte cell, 300493, CLS) was inoculated into DMEM medium containing 10% Fetal bovine serum, 100 units/m1 of penicillin, 100n/m1 of streptomycin (D6429, Sigma-Aldrich Co. Ltd) and was incubated in the incubator (HERA cell 150i, Thermo Fisher Scientific Co. Ltd.) maintaining optimum humidity (85-95%) and 5% CO2 atmosphere.
(§3) For performing gene expression test, the incubated cells were transferred to 12 wells and 50 ng/ml of TNF alpha (RC214-12, Biobasic Co. Ltd) was treated therewith for 1 hour to induce inflammatory response.
(§4) 1 hour after inducing the inflammation, 1 μg/ml of inventive extract prepared in Examples was treated with identical medium and subjected to incubation for 1 hour. After the incubation, RNA (FATRR-001, Favorgen) was extracted from the cell and cDNA was synthesized from the RNA using by cDNA synthesis kit (RRO36A, TAKARA). […]

The test system of experiment [2] is IL-1β. Put plainly: Inhibition of TNF alpha-induced IL-1β expression in HaCaT cells (RT-PCR). In kind it is cell-based, human. To be noted: TNFα 50 ng/ml, extract 1 μg/ml, Dex 200 nM, mean. The protocol:
as §1, §2, §3, §4

In experiment [3] the test system is DNFB-induced skin dermatitis, BALB/C female mouse. Put plainly: DNFB-induced atopic dermatitis in BALB/C mice, skin dermatitis severity score. In kind it is in vivo. Conditions: 16th day, topical WIN-1001X 10 mg/ml, DEX 200 μM, DNFB+DIW 8.8. The protocol:
To confirm the inhibitory effect of inventive extract on the atopic dermatitis, the animal model test using by mice, was performed according to the method disclosed in the reference (Li et al., Drug. Des. Devel. Ther., 2016, Feb. 19; 10:781-191).
(§5) 100 μL of 0.15% (w/v) DNFB (2,4-dinitrofluorobenzene, D1529, Sigma-Aldrich Co. Ltd.) was spread on […] of 6 weeks-old BALB/C female mouse (DBL Co., Ltd. Incheon, Korea) and after removing the central dorsal hair, 100 μL of 0.15% (w/v) DNFB (2,4-dinitrofluorobenzene, D1529, Sigma-Aldrich Co. Ltd.) was spread at every third day starting from at 7th day to 16th day to induce skin inflammation.
For the purpose of comparing with test group, the identical test excepting using acetone instead of DNFB and DIW instead of test sample with the above procedure was performed.

For experiment [4], the system named is skin epidermal layer. In kind it is in vivo, mouse. To be noted: DNFB BALB/C mice, 16th day, H&E; topical WIN-1001X 10 mg/ml, DEX 200 μM; acetone+DIW = 1, DNFB+DIW 7.06.
Procedure: (§8) Ltd.) was spread at every third day starting from at 7th day to 16th day to induce skin inflammation. […] Additionally, the histological analysis on skin tissue of test animal has been performed. Specifically, the dorsal skin tissue occurring dermatitis was fixed on 4% (w/v) paraformaldehyde solution ([MUT], Sigma-Aldrich) in shaker maintaining 4° C. (CR300, […] ) at 16th day after the sample treatment and 12 hours after the fixation, the dehydrated and transparent tissue was embedded in paraffin, sliced (5 μm of width) to make tissue slices.
In experiment [5] the test system is mast cells infiltrated into inflamed lesion. In kind it is in vivo, mouse. To be noted: DNFB BALB/C mice, 16th day, toluidine blue; topical WIN-1001X 10 mg/ml, DEX 200 μM; acetone+DIW = 1, DNFB+DIW 3.18.
Procedure: as §8
The subject of experiment [6] is IL-4. Put plainly: IL-4 expression in dorsal skin of DNFB mice (RT-PCR). In kind it is in vivo, mouse. To be noted: 16th day, WIN-1001X 10 mg/ml, DEX 200 μM, DNFB+DIW 11.4. As for the experimental part: as §5
(§6) In order to determine the anti-inflammatory activity of inventive extract, following inhibition test of cytokine expression using test animal was performed according to the procedure disclosed in the literature (Li et al., Drug. Des. Devel. Ther., 2016, Feb. 19; 10:781-191).
(§7) At 16th day after the treatment of DNFB, RNA (FATRR-001, Favorgan) was extracted from the dorsal skin of mice prepared in Experimental Example 2 and cDNA was synthesized from the RNA using by cDNA synthesis kit (RRO36A, TAKARA). The polymerization reaction was performed using by the synthesized cDNA and Sybrgreen kit (RT500M, Enzynomics) and then Real-time-PCR was performed using by primers for various cytokines involved in skin inflammation (GADPH, TSLP, GM-CSF, IL-4, IL-10, IL-13, IL-31 and IL-33) as disclosed in Table 7.

The test system of experiment [7] is IL-10. Put plainly: IL-10 expression in dorsal skin of DNFB mice (RT-PCR). In kind it is in vivo, mouse. To be noted: 16th day, WIN-1001X 10 mg/ml, DEX 200 μM, DNFB+DIW 19.3. As for the experimental part: as §5, §6, §7
The subject of experiment [8] is IL-13. Put plainly: IL-13 expression in dorsal skin of DNFB mice (RT-PCR). Conditions: 16th day, WIN-1001X 10 mg/ml, DEX 200 μM, DNFB+DIW 48.6. In kind it is in vivo, mouse. As for the experimental part:
as §5, §6, §7

Experiment [9] relates to IL-22. Put plainly: IL-22 expression in dorsal skin of DNFB mice (RT-PCR). In kind it is in vivo, mouse. Conditions: 16th day, WIN-1001X 10 mg/ml, DEX 200 μM, DNFB+DIW 29.2.
In experiment [10] the test system is IL-31. Put plainly: IL-31 expression in dorsal skin of DNFB mice (RT-PCR). In kind it is in vivo, mouse. To be noted: 16th day, WIN-1001X 10 mg/ml, DEX 200 μM, DNFB+DIW 3.93. As for the experimental part:
as §5, §6, §7

Experiment [11] concerns IL-33. Put plainly: IL-33 expression in dorsal skin of DNFB mice (RT-PCR). In kind it is in vivo, mouse. Conditions: 16th day, WIN-1001X 10 mg/ml, DEX 200 μM, DNFB+DIW 9.47. The protocol:
as §5, §6, §7

Experiment [12] concerns TSLP. Put plainly: TSLP expression in dorsal skin of DNFB mice (RT-PCR). In kind it is in vivo, mouse. Conditions: 16th day, WIN-1001X 10 mg/ml, DEX 200 μM, DNFB+DIW 7.51. As for the experimental part:
as §5
In order to determine the anti-inflammatory activity of inventive extract, following inhibition test of TSLP cytokine expression using test animal was performed according to the procedure disclosed in the literature (Li et al., Drug. Des. Devel. Ther., 2016, Feb. 19; 10:781-191).
At 16th day after the treatment of DNFB, RNA (FATRR-001, Favorgan) was extracted from the dorsal skin of mice prepared in Experimental Example 2 and cDNA was synthesized from the RNA using by cDNA synthesis kit (RRO36A, TAKARA). The polymerization reaction was performed using by the synthesized cDNA and Sybrgreen kit (RT500M, Enzynomics) and then Real-time-PCR was performed using by primers for TSLP cytokines involved in skin inflammation as disclosed in Table 7.

On to `C[C@@H]1C[C@H]2[C@@H]3CCC4=CC(=O)C=C[C@]4(C)[C@@]3(F)[C@@H](O)C[C@]2(C)[C@@]1(O)C(=O)CO` [DEX, Dexamethasone], for which the “TSLP expression (RT-PCR, relative to untreated = 1)” value in experiment [1] is given as 52.49. Also, in experiment [2], the “IL-1β expression (RT-PCR, relative to untreated = 1)” value is recorded as 1.081. The “Improving effect on skin dermatitis (severity score, total score 12)” value in experiment [3] was 2.2. In experiment [4], the “relative area of epidermis” value amounted to 1.638 fold. In experiment [5], the “relative number of mast cells” value was 0.8548 fold. Besides, the “IL-4 expression (RT-PCR, relative to acetone+DIW = 1)” value in experiment [6] turned out to be 4.798. Besides, in experiment [7], the “IL-10 expression (RT-PCR, relative to acetone+DIW = 1)” value was 20.44. The “IL-13 expression (RT-PCR, relative to acetone+DIW = 1)” value in [8] was 12.56. The “IL-22 expression (RT-PCR, relative to acetone+DIW = 1)” value in [9] was found to be 13.08. For the same compound, in experiment [10], the “IL-31 expression (RT-PCR, relative to acetone+DIW = 1)” value is on record as 1.001. In [11], the “IL-33 expression (RT-PCR, relative to acetone+DIW = 1)” value is 0.7365. In addition, the “TSLP expression (RT-PCR, relative to acetone+DIW = 1)” value in experiment [12] came to 1.311.
